Assay results as given in patent US20240109868A1, “EP300/CBP MODULATOR, PREPARATION METHOD THEREFOR AND USE THEREOF” (Miracure Biotechnology Limited, priority 2022, published 2024).

Key:
[1] = tested on: 22Rv1 Cell; test: 22RV1 cell growth inhibition, CellTiter-Glo, 72 h; type: cell-based; settings: 22RV1 cells, 72 h culture
How it was run: (§1)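 Cells seeded at 5×10^3/well overnight in RPMI-1640/10% FBS, then exposed to compound (0.5% DMSO final) for 72 h at 37 °C.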

[2] = tested on: vCap Cell; test: vCap cell growth inhibition, CellTiter-Glo, 72 h; type: cell-based; settings: vCap cells, 72 h culture
How it was run: as §1

Compound	IC50 ([1]; Homo sapiens, 22Rv1, 72 h) [nM]	IC50 ([2]; Homo sapiens, VCaP, 72 h) [nM]	IC50 [1] [nM]	IC50 [2] [nM]
CNC(=O)N1CCc2cc(C3CCC(=O)CC3)cc(N3CCCc4cc(-c5cnn(C)c5)c(C(F)F)cc43)c2C1 [Compound M001103]	> 1000	> 1000	–	–
CNC(=O)N1Cc2cc(C3CC4CCC(C3)N4C(=O)NC)cc(N3CCCc4cc(-c5cnn(C)c5)c(C(F)F)cc43)c2C1 (stereo not drawn) [Compound M001116]	> 1000	> 1000	–	–
CNC(=O)N1Cc2cc(C3CCNC(=O)C3)cc(N3CCCc4cc(-c5cnn(C)c5)c(C(F)F)cc43)c2C1 (stereo not drawn) [Compound M001118]	> 1000	> 1000	–	–
CNC(=O)N1Cc2cc(C3CCN(C)C(=O)C3)cc(N3CCCc4cc(-c5cnn(C)c5)c(C(F)F)cc43)c2C1 (stereo not drawn) [Compound M001119]	> 1000	> 1000	–	–
CNC(=O)N1Cc2cc(-c3ccccc3)cc(N3CCCc4cc(-c5cnn(C)c5)c(C(F)F)cc43)c2C1 [Compound M001120]	> 1000	> 1000	–	–
CNC(=O)N1Cc2cc(-c3ccc(OC)cc3)cc(N3CCCc4cc(-c5cnn(C)c5)c(C(F)F)cc43)c2C1 [Compound M001121]	> 1000	> 1000	–	–
CNC(=O)N1Cc2cc(-c3ccn(C)c(=O)c3)cc(N3CCCc4cc(-c5cnn(C)c5)c(C(F)F)cc43)c2C1 [Compound M001122]	> 1000	> 1000	–	–
CNC(=O)N1CCc2cc(C3CCNC(=O)C3)cc(N3CCCc4cc(-c5cnn(C)c5)c(C(F)F)cc43)c2C1 (stereo not drawn) [Compound M001123]	> 1000	< 1000	–	–
CNC(=O)N1CCc2cc(C3CCN(C)C(=O)C3)cc(N3CCCc4cc(-c5cnn(C)c5)c(C(F)F)cc43)c2C1 (stereo not drawn) [Compound M001124, 8-(7-(difluoromethyl)-6-(1-methyl-1H-pyrazol-4-yl)-3,4-dihydroquinolin-1(2H)-yl)-N-methyl-6-(1-methyl-2-oxopiperidin-4-yl)-3,4H-dihydroisoquinoline-2(1H)-carboxamide]	< 1000	< 1000	–	–
CNC(=O)N1CCc2cc(-c3ccn(C)c(=O)c3)cc(N3CCCc4cc(-c5cnn(C)c5)c(C(F)F)cc43)c2C1 [Compound M001125]	> 1000	< 1000	–	–
CC(=O)N1Cc2cc(C3CCN(C)C(=O)C3)cc(N3CCCc4cc(-c5cnn(C)c5)c(C(F)F)cc43)c2C1 (stereo not drawn) [Compound M001127]	< 1000	< 1000	–	–
CC(=O)N1Cc2cc(-c3ccn(C)c(=O)c3)cc(N3CCCc4cc(-c5cnn(C)c5)c(C(F)F)cc43)c2C1 [Compound M001128]	> 1000	> 1000	–	–
CNC(=O)N1C2CCC1CC(c1cc3c(c(N4CCCc5cc(-c6cnn(C)c6)c(C(F)F)cc54)c1)CN(C(C)=O)C3)C2 (stereo not drawn) [Compound M001129]	< 1000	< 1000	–	–
COC(=O)N1C2CCC1CC(c1cc3c(c(N4CCCc5cc(-c6cnn(C)c6)c(C(F)F)cc54)c1)CN(C(C)=O)C3)C2 (stereo not drawn) [Compound M001132]	> 1000	< 1000	–	–
CNC(=O)N1Cc2cc(C3CC4CCC(C3)N4C(=O)OC)cc(N3CCCc4cc(-c5cnn(C)c5)c(C(F)F)cc43)c2C1 (stereo not drawn) [Compound M001137]	> 1000	> 1000	–	–
CC(=O)N1CCc2cc(C3CCNC(=O)C3)cc(N3CCCc4cc(-c5cnn(C)c5)c(C(F)F)cc43)c2C1 (stereo not drawn) [Compound M001142]	> 1000	> 1000	–	–
CC(=O)N1CCc2cc(C3CCN(C)C(=O)C3)cc(N3CCCc4cc(-c5cnn(C)c5)c(C(F)F)cc43)c2C1 (stereo not drawn) [Compound M001143]	> 1000	> 1000	–	–
CC(=O)N1CCc2cc(-c3ccn(C)c(=O)c3)cc(N3CCCc4cc(-c5cnn(C)c5)c(C(F)F)cc43)c2C1 [Compound M001144]	> 1000	> 1000	–	–
CC(=O)N1CCc2cc(-c3cc[nH]c(=O)c3)cc(N3CCCc4cc(-c5cnn(C)c5)c(C(F)F)cc43)c2C1 [Compound M001153]	> 1000	> 1000	–	–
CNC(=O)N1Cc2cc(-c3cc[nH]c(=O)c3)cc(N3CCCc4cc(-c5cnn(C)c5)c(C(F)F)cc43)c2C1 [Compound M001155]	> 1000	> 1000	–	–
CC(=O)N1Cc2cc(-c3cc[nH]c(=O)c3)cc(N3CCCc4cc(-c5cnn(C)c5)c(C(F)F)cc43)c2C1 [Compound M001156]	> 1000	> 1000	–	–
CNC(=O)N1Cc2cc(C3CCN(C(C)=O)CC3)cc(N3CCCc4cc(-c5cnn(C)c5)c(C(F)F)cc43)c2C1 [Compound M001161]	> 1000	< 1000	–	–
CNC(=O)N1Cc2cc(C3CCN(C(=O)C4CC4)CC3)cc(N3CCCc4cc(-c5cnn(C)c5)c(C(F)F)cc43)c2C1 [Compound M001162]	> 1000	> 1000	–	–

Compound	IC50 ([1]; Homo sapiens, 22Rv1, 72 h) [nM]	IC50 ([2]; Homo sapiens, VCaP, 72 h) [nM]	IC50 [1] [nM]	IC50 [2] [nM]
CNC(=O)N1Cc2cc(C3CCN(C(=O)c4ccccc4)CC3)cc(N3CCCc4cc(-c5cnn(C)c5)c(C(F)F)cc43)c2C1 [Compound M001163]	> 1000	> 1000	–	–
CN1CCC(c2cc3c(c(N4CCCc5cc(-c6cnn(C)c6)c(C(F)F)cc54)c2)CN(C(=O)C2CC2)C3)CC1=O (stereo not drawn) [Compound M001164]	> 1000	> 1000	–	–
CNC(=O)N1CCc2cc(C3CCC(=O)N(C)C3)cc(N3CCCc4cc(-c5cnn(C)c5)c(C(F)F)cc43)c2C1 (stereo not drawn) [Compound M001170]	< 1000	< 1000	–	–
CC(=O)N1Cc2cc(C3CCN(C(=O)c4cn(C)cn4)CC3)cc(N3CCCc4cc(-c5cnn(C)c5)c(C(F)F)cc43)c2C1 [Compound M001176]	< 1000	< 1000	–	–
CC(=O)N1CCc2cc([C@H]3CC[C@@H](O)CC3)cc(N3CCCc4cc(-c5cnn(C)c5)c(C(F)F)cc43)c2C1 [Compound M001178]	> 1000	> 1000	–	–
CC(=O)N1CCc2cc([C@H]3CC[C@H](O)CC3)cc(N3CCCc4cc(-c5cnn(C)c5)c(C(F)F)cc43)c2C1 [Compound M001179]	> 1000	> 1000	–	–
CNC(=O)N1CCc2cc(C3CCC(O)CC3)cc(N3CCCc4cc(-c5cnn(C)c5)c(C(F)F)cc43)c2C1 (stereo not drawn) [Compound M001180]	> 1000	< 1000	–	–
CNC(=O)N1CCc2cc([C@H]3CC[C@H](O)CC3)cc(N3CCCc4cc(-c5cnn(C)c5)c(C(F)F)cc43)c2C1 [Compound M001181]	> 1000	> 1000	–	–
CNC(=O)N1CCc2cc(C3CCOCC3)cc(N3CCCc4cc(-c5cnn(C)c5)c(C(F)F)cc43)c2C1 [Compound M001184]	> 1000	< 1000	–	–
CCN1CCC(c2cc3c(c(N4CCCc5cc(-c6cnn(C)c6)c(C(F)F)cc54)c2)CN(C(=O)NC)CC3)CC1=O (stereo not drawn) [Compound M001186]	< 1000	< 1000	–	–
CNC(=O)N1CCc2cc(C3CCN(CCOC)C(=O)C3)cc(N3CCCc4cc(-c5cnn(C)c5)c(C(F)F)cc43)c2C1 (stereo not drawn) [Compound M001188]	< 1000	< 1000	–	–
CCN1CCC(c2cc3c(c(N4CCCc5cc(-c6cnn(C)c6)c(C(F)F)cc54)c2)CN(C(C)=O)C3)CC1=O (stereo not drawn) [Compound M001189]	< 1000	< 1000	–	–
CNC(=O)N1Cc2cc([C@H]3CC[C@@H](O)CC3)cc(N3CCCc4cc(-c5cnn(C)c5)c(C(F)F)cc43)c2C1 [Compound M001192]	> 1000	> 1000	–	–
CNC(=O)N1Cc2cc([C@H]3CC[C@H](O)CC3)cc(N3CCCc4cc(-c5cnn(C)c5)c(C(F)F)cc43)c2C1 [Compound M001193]	> 1000	> 1000	–	–
CC(=O)N1Cc2cc([C@H]3CC[C@H](O)CC3)cc(N3CCCc4cc(-c5cnn(C)c5)c(C(F)F)cc43)c2C1 [Compound M001194]	> 1000	< 1000	–	–
CC(=O)N1Cc2cc([C@H]3CC[C@@H](O)CC3)cc(N3CCCc4cc(-c5cnn(C)c5)c(C(F)F)cc43)c2C1 [Compound M001195]	> 1000	< 1000	–	–
COC1CCC(c2cc3c(c(N4CCCc5cc(-c6cnn(C)c6)c(C(F)F)cc54)c2)CN(C(C)=O)CC3)CC1 (stereo not drawn) [Compound M001196]	> 1000	> 1000	–	–
COC1CCC(c2cc3c(c(N4CCCc5cc(-c6cnn(C)c6)c(C(F)F)cc54)c2)CN(C(C)=O)CC3)CC1 (stereo not drawn) [Compound M001197]	–	–	> 1000	> 1000
CNC(=O)N1CCc2cc(C3CCC(OC)CC3)cc(N3CCCc4cc(-c5cnn(C)c5)c(C(F)F)cc43)c2C1 (stereo not drawn) [Compound M001198]	> 1000	> 1000	–	–
CNC(=O)N1CCc2cc(C3CCC(OC)CC3)cc(N3CCCc4cc(-c5cnn(C)c5)c(C(F)F)cc43)c2C1 (stereo not drawn) [Compound M001199]	–	–	> 1000	> 1000
CNC(=O)N1Cc2cc(C3CCC(OC)CC3)cc(N3CCCc4cc(-c5cnn(C)c5)c(C(F)F)cc43)c2C1 (stereo not drawn) [Compound M001200]	> 1000	> 1000	–	–
COC(=O)N1CCc2cc(Cl)cc(N3CCCc4cc(-c5cnn(C)c5)c(C(F)F)cc43)c2C1 [Compound M001201]	> 1000	> 1000	–	–
